{"source": "patent US8895588B2", "about": "“Pyrazole compound” (Takeda Pharmaceutical Company Limited, priority 2009, dated 2014)", "key": {"[1]": {"test_system": "anesthetized rat", "assay": "Histamine-stimulated acid secretion suppression test using anesthetized rat", "type": "in vivo", "details": "1 mg/kg i.v., anesthetized SD rat, 3 hr after histamine", "experimental": "Histamine-Stimulated Acid Secretion Suppression Test Using Anesthetized Rat 7-Week-old Jcl: male SD rats were fasted for about 24 hr and used for the experiment. Under urethane (1.2 g/kg, i.p.) anesthesia, the abdomen was incised along the middle-spinal line and the pyloric ring was ligated. Test compound (1 mg/kg) was intravenously administered, the abdominal incision was sutured, and histamine dihydrochloride (30 mg/kg/10 mL) dissolved in physiological saline was subcutaneously administered. After 3 hr from histamine administration, the rats were killed with carbon dioxide gas. The stomach was isolated and the accumulated gastric fluid was collected. The gastric fluid amount was measured and the acid level was measured using acid titration apparatus COM-555 (HIRANUMA SANGYO Co., Ltd.), and the product thereof was taken as the acid secretion level. The acid secretion suppressive rate of the test compound was determined from the comparison with control."}, "[2]": {"test_system": "Caspase-3/7", "assay": "Caspase-3/7 activity test", "type": "cell-based, human", "details": "HepG2, 100 μM, culture for one day, relative to staurosporine maximum as 100%, no test reagent as 0%", "experimental": "(§1) Human hepatocellular liver carcinoma cell line HepG2 (ATCC No. HB-8065) was maintained and subcultured at 5% CO2, 37° C. in a Dulbecco's modified Eagle medium (DMEM; Invitrogen) medium containing 10% fetal bovine serum (FBS; TRACE SCIENTIFIC LTD.), 1 mmol/L sodium pyruvate (Invitrogen), 2 mmol/L L-glutamine (Invitrogen), 50 IU/mL penicillin (Invitrogen), 50 μg/mL streptomycin (Invitrogen). Test reagent was prepared to 10 mM with DMSO, and diluted with DMEM medium containing 0.5% FBS, 1 mmol/L sodium pyruvate, 2 mmol/L L-glutamine, 50 IU/ml penicillin, 50 μg/mL streptomycin to the DMSO final concentration of 0.1%. HepG2 (2×10^4 cells/well) was cultured on a 96 well white plate (Costar) together with the test reagent at 5% CO2, 37° C. After culture for one day, the intracellular ATP content was measured with ATPLite™ (PerkinElmer Life Sciences). The results are shown in Table 1 as relative value (%) to the control (free of compound) at 100 μm (n≧3, mean±SD). Caspase-3/7 Activity Test The cells were cultured for one day according to a method similar to the method of Experimental Example 3, and the intracellular Caspase-3/7 activity was measured by Caspase-Glo 3/7 Assay (Promega). The results are shown in Table 1 as relative activity (%) of each test reagent when the maximum value of Caspase-3/7 activity on exposure to staurosporine as 100%, and activity without addition of test reagent as 0% (n≧3, mean±SD)."}, "[3]": {"test_system": "HepG2", "assay": "ATP content test", "type": "cell-based, human", "details": "HepG2, 100 μM, culture for one day, relative value to control (free of compound)", "experimental": "as §1, with “ATP Content Test Human” for “Human”, “mean±SD).” for “mean±SD). Caspase-3/7 Activity Test The cells were cultured for one day according to a method similar to the method of Experimental Example 3, and the intracellular Caspase-3/7 activity was measured by Caspase-Glo 3/7 Assay (Promega). The results are shown in Table 1 as relative activity (%) of each test reagent when the maximum value of Caspase-3/7 activity on exposure to staurosporine as 100%, and activity without addition of test reagent as 0% (n≧3, mean±SD).”"}, "[4]": {"biological_target": "T1, H^+/K^+-ATPase (Sus scrofa, UniProt P19156)", "T1 construct": "The obtained microsomal fraction was used as proton, potassium-adenosine triphosphatase preparations; from tissue; host or cells: swine stomach, microsomal fraction of gastric mucosa", "T1 sequence (P19156 whole entry)": "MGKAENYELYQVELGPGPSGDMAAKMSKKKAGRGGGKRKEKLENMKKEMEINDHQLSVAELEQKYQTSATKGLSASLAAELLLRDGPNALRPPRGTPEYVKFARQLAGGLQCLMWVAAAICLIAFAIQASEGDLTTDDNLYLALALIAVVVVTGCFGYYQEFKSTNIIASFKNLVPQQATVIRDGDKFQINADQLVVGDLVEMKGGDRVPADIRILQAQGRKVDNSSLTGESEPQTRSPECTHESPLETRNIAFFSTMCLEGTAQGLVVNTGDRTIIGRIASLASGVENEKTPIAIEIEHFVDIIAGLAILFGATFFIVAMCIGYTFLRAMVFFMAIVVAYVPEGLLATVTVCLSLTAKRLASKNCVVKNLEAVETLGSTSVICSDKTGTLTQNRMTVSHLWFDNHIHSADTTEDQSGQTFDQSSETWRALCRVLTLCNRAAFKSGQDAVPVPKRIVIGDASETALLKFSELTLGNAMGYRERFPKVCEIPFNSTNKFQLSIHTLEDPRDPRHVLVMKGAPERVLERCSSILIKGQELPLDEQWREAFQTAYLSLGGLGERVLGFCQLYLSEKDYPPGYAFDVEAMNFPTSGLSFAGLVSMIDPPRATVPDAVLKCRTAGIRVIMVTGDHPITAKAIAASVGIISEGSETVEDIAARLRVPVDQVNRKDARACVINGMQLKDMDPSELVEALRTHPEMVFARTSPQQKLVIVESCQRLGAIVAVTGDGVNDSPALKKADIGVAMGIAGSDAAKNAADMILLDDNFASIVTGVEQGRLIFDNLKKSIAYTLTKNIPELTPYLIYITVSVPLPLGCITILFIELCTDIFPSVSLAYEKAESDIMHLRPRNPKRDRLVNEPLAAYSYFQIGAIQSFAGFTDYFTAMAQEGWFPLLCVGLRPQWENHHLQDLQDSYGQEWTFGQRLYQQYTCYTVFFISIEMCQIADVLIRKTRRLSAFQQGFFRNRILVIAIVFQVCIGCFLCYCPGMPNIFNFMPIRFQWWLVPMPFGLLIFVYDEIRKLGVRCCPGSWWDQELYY", "T1 sequence (P18434 whole entry partner)": "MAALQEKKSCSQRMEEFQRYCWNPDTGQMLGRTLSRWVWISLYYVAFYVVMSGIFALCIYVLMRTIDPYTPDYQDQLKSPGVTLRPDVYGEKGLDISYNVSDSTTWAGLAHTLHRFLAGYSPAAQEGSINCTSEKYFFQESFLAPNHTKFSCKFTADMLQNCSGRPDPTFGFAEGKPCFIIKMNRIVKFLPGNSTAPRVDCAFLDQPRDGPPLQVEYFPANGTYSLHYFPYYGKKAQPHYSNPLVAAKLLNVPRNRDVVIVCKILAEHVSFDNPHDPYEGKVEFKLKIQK", "assay": "Proton potassium-adenosine triphosphatase (H+,K+-ATPase) inhibitory activity test", "type": "biochemical", "details": "swine gastric mucosa microsomal fraction, pH 6.5, 37° C.", "experimental": "Proton Potassium-Adenosine Triphosphatase (H^+,K^+-ATPase) Inhibitory Activity Test According to the method of Wallmark et al. [Biochim. Biophys. Acta, 728, 31 (1983)], a microsomal fraction of gastric mucosa was prepared from the stomach of swine. First, the stomach was removed, washed with tap water, and immersed in 3 mol/L sodium chloride, and the surface of the mucosa was wiped with a paper towel. The gastric mucosa was removed, minced, and homogenized in a 0.25 mol/L sucrose solution (pH 6.8) containing 1 mmol/L EDTA and 10 mmol/L tris-hydrochloric acid using polytron (Kinematica). The obtained homogenate was centrifuged at 20,000×g for 30 min and the supernatant was centrifuged at 100,000×g for 90 min. The precipitate was suspended in 0.25 mol/L sucrose solution, the suspension was superimposed on a 0.25 mol/L sucrose solution containing 7.5% Ficoll, and centrifuged at 100,000×g for 5 hr. The fraction containing the interface between the both layers was recovered, and centrifugally washed with 0.25 mol/L sucrose solution. The obtained microsomal fraction was used as proton, potassium-adenosine triphosphatase preparations. To 50 mmol/L HEPES-Tris buffer (5 mmol/L magnesium chloride, 10 mmol/L potassium chloride, 10 μmol/L valinomycin, pH=6.5, 40 μL) containing 2.5 μg/mL enzyme preparation based on the protein concentration was added a test compound (5 μL) dissolved in 10% dimethyl sulfoxide solution, and the mixture was incubated at 37° C. for 30 min. A 2 mmol/L adenosine triphosphate tris salt solution (50 mmol/L HEPES-tris buffer (5 mmol/L magnesium chloride, pH 6.5), 5 μL) was added to start an enzyme reaction. The enzyme reaction was performed at 37° C. for 20 min, and then a malachite green solution (a mixture of 0.12% malachite green sulfate (2.5 mol/L) solution, 7.5% ammonium molybdate and 11% Tween 20 at a ratio of 100:25:2, 15 μL) was added to stop the reaction. The reaction mixture was stood at room temperature for 15 min, and the resulting reaction product of inorganic phosphorus and malachite green was measured by colorimetric quantification at a wavelength of 610 nm. In addition, the amount of inorganic phosphoric acid in a reaction solution free of potassium chloride was also measured in the same manner, and the value was extracted from that in the presence of potassium chloride, whereby the proton, potassium-adenosine triphosphatase activity was measured. The inhibitory rate (%) was determined from the activity value of the control and that at each concentration of the test compound, and 50% inhibitory concentration (IC50) to proton, potassium-adenosine triphosphatase was determined."}}}
{"smiles": "CNCc1cc(S(=O)(=O)c2ccc(F)cc2)n(-c2cccnc2F)n1.Cl", "note": "[Example 1, 1-{5-[(4-fluorophenyl)sulfonyl]-1-(2-fluoropyridin-3-yl)-1H-pyrazol-3-yl}-N-methylmethanamine hydrochloride]", "values": [{"measurement": "acid secretion inhibitory rate (%, 1 mg/kg, intravenous administration, rat)", "setting": "[1]", "value": 98, "unit": "%"}, {"measurement": "Caspase-3/7 activity (%, 100 μM)", "setting": "[2]", "value": 0.1, "unit": "%"}, {"measurement": "ATP content (%, 100 μM)", "setting": "[3]", "value": 95.9, "unit": "%"}, {"measurement": "IC50", "setting": "[4]", "value": 120, "unit": "nM"}]}
{"smiles": "CNCc1cc(S(=O)(=O)c2ccc(OC)cc2)n(-c2cccnc2F)n1.Cl", "note": "[Example 2, 1-{1-(2-fluoropyridin-3-yl)-5-[(4-methoxyphenyl)sulfonyl]-1H-pyrazol-3-yl}-N-methylmethanamine hydrochloride]", "values": [{"measurement": "acid secretion inhibitory rate (%, 1 mg/kg, intravenous administration, rat)", "setting": "[1]", "value": 82, "unit": "%"}, {"measurement": "IC50", "setting": "[4]", "value": 350, "unit": "nM"}]}
{"smiles": "CNCc1cc(S(=O)(=O)c2cccc(C)c2)n(-c2cccnc2F)n1.Cl", "note": "[Example 3, 1-{1-(2-fluoropyridin-3-yl)-5-[(3-methylphenyl)sulfonyl]-1H-pyrazol-3-yl}-N-methylmethanamine hydrochloride]", "values": [{"measurement": "acid secretion inhibitory rate (%, 1 mg/kg, intravenous administration, rat)", "setting": "[1]", "value": 95, "unit": "%"}, {"measurement": "Caspase-3/7 activity (%, 100 μM)", "setting": "[2]", "value": "−0.2", "unit": "%"}, {"measurement": "ATP content (%, 100 μM)", "setting": "[3]", "value": 90.1, "unit": "%"}, {"measurement": "IC50", "setting": "[4]", "value": 88, "unit": "nM"}]}
{"smiles": "CNCc1cc(S(=O)(=O)c2cccc(C#N)c2)n(-c2cccnc2F)n1.Cl", "note": "[Example 4, 3-({1-(2-fluoropyridin-3-yl)-3-[(methylamino)methyl]-1H-pyrazol-5-yl}sulfonyl)benzonitrile hydrochloride]", "values": [{"measurement": "acid secretion inhibitory rate (%, 1 mg/kg, intravenous administration, rat)", "setting": "[1]", "value": 99, "unit": "%"}, {"measurement": "Caspase-3/7 activity (%, 100 μM)", "setting": "[2]", "value": 1.0, "unit": "%"}, {"measurement": "ATP content (%, 100 μM)", "setting": "[3]", "value": 98.5, "unit": "%"}, {"measurement": "IC50", "setting": "[4]", "value": 230, "unit": "nM"}]}
